In PubChem BioAssay AID2060626 (Molecular Pharmacology Branch, DTP, NCI, 2025):

System: 168753-222-R-J1-PDC complex spheroid viability
Test: Anticancer human tumor 168753-222-R-J1-PDC patient-derived bladder carcinoma cell line growth inhibition [CLK]
Settings: for IC50: curve of first compound; for viability, T/C: stronger effect = lower value
Outline: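 Multi-cell-type spheroids combined patient-derived tumor cells with HUVEC endothelial cells and human mesenchymal stem cells. Paired agents were dosed in half-log steps down from about clinical Cmax, or from 10 microM where Cmax was unknown.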

[1] = second compound 0.0316 µM, first compound 0.0316 µM
[2] = second compound 0.0316 µM, first compound 0.1 µM
[3] = second compound 0.0316 µM, first compound 0.316 µM
[4] = second compound 0.0316 µM, first compound 1 µM
[5] = second compound 0.1 µM, first compound 0.0316 µM
[6] = second compound 0.1 µM, first compound 0.1 µM
[7] = second compound 0.1 µM, first compound 0.316 µM
[8] = second compound 0.1 µM, first compound 1 µM
[9] = second compound 0.316 µM, first compound 0.0316 µM
[10] = second compound 0.316 µM, first compound 0.1 µM
[11] = second compound 0.316 µM, first compound 0.316 µM
[12] = second compound 0.316 µM, first compound 1 µM
[13] = second compound 1 µM, first compound 0.0316 µM
[14] = second compound 1 µM, first compound 0.1 µM
[15] = second compound 1 µM, first compound 0.316 µM
[16] = second compound 1 µM, first compound 1 µM
[17] = second compound 3.16 µM, first compound 0.0316 µM
[18] = second compound 3.16 µM, first compound 0.1 µM
[19] = second compound 3.16 µM, first compound 0.316 µM
[20] = second compound 3.16 µM, first compound 1 µM
[21] = second compound 10 µM, first compound 0.0316 µM
[22] = second compound 10 µM, first compound 0.1 µM
[23] = second compound 10 µM, first compound 0.316 µM
[24] = second compound 10 µM, first compound 1 µM
[25] = second compound 0.0316 µM, first compound 3.16 µM
[26] = second compound 0.0316 µM, first compound 10 µM
[27] = second compound 0.1 µM, first compound 3.16 µM
[28] = second compound 0.1 µM, first compound 10 µM
[29] = second compound 0.316 µM, first compound 3.16 µM
[30] = second compound 0.316 µM, first compound 10 µM
[31] = second compound 1 µM, first compound 3.16 µM
[32] = second compound 1 µM, first compound 10 µM
[33] = second compound 3.16 µM, first compound 3.16 µM
[34] = second compound 3.16 µM, first compound 10 µM
[35] = second compound 10 µM, first compound 3.16 µM
[36] = second compound 10 µM, first compound 10 µM
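Also: viability measured after seven days of drug exposure.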
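For viability, T/C in this document: luminescence signal used as surrogate for viable cell amount; 100% = DMSO vehicle control wells.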

CCN1CCN(Cc2ccc(Nc3ncc(F)c(-c4cc(F)c5nc(C)n(C(C)C)c5c4)n3)nc2)CC1 + CN1CCN(c2cc(C(=O)Nc3cc4cc(-c5cnn(C)c5)ccc4cn3)ccn2)CC1
IC50 (second compound 0.0316 µM): 8.23 nM
IC50 (second compound 0.1 µM): 7.04 nM
IC50 (second compound 0.316 µM): < 3.16 nM
IC50 (second compound 1 µM): < 3.16 nM
IC50 (second compound 3.16 µM): < 3.16 nM
IC50 (second compound 10 µM): < 3.16 nM
viability, T/C (second compound 0.0316 µM, first compound 0.00316 µM): 76.3%
viability, T/C (second compound 0.0316 µM, first compound 0.01 µM): 44.8%
viability, T/C [1]: 29.6%
viability, T/C [2]: 36.7%
viability, T/C [3]: 22.4%
viability, T/C [4]: 26.2%
viability, T/C (second compound 0.1 µM, first compound 0.00316 µM): 76.5%
viability, T/C (second compound 0.1 µM, first compound 0.01 µM): 38.7%
viability, T/C [5]: 20.5%
viability, T/C [6]: 19.9%
viability, T/C [7]: 17.4%
viability, T/C [8]: 12.6%
viability, T/C (second compound 0.316 µM, first compound 0.00316 µM): 11.4%
viability, T/C (second compound 0.316 µM, first compound 0.01 µM): 9.45%
viability, T/C [9]: 8.81%
viability, T/C [10]: 8.47%
viability, T/C [11]: 10.7%
viability, T/C [12]: 12.1%
viability, T/C (second compound 1 µM, first compound 0.00316 µM): 0.18%
viability, T/C (second compound 1 µM, first compound 0.01 µM): 0.21%
viability, T/C [13]: 1.13%
viability, T/C [14]: 0.13%
viability, T/C [15]: 1.24%
viability, T/C [16]: 0.34%
viability, T/C (second compound 3.16 µM, first compound 0.00316 µM): 0.09%
viability, T/C (second compound 3.16 µM, first compound 0.01 µM): 0.13%
viability, T/C [17]: 0.44%
viability, T/C [18]: 0.08%
viability, T/C [19]: 1.18%
viability, T/C [20]: 0.99%
viability, T/C (second compound 10 µM, first compound 0.00316 µM): 0.11%
viability, T/C (second compound 10 µM, first compound 0.01 µM): 0.29%
viability, T/C [21]: 0.24%
viability, T/C [22]: 0.13%
viability, T/C [23]: 1.1%
viability, T/C [24]: 1.36%

O=C(c1cc(Cc2n[nH]c(=O)c3ccccc23)ccc1F)N1CCN(C(=O)C2CC2)CC1 + CN1CCN(c2cc(C(=O)Nc3cc4cc(-c5cnn(C)c5)ccc4cn3)ccn2)CC1
IC50 (second compound 0.0316 µM): > 10000 nM
IC50 (second compound 0.1 µM): 424 nM
IC50 (second compound 0.316 µM): < 31.6 nM
IC50 (second compound 1 µM): < 31.6 nM
IC50 (second compound 3.16 µM): < 31.6 nM
IC50 (second compound 10 µM): < 31.6 nM
viability, T/C [1]: 73.3%
viability, T/C [2]: 75.6%
viability, T/C [3]: 72.5%
viability, T/C [4]: 88.2%
viability, T/C [25]: 73.6%
viability, T/C [26]: 77.8%
viability, T/C [5]: 45.6%
viability, T/C [6]: 67.2%
viability, T/C [7]: 52.5%
viability, T/C [8]: 40.3%
viability, T/C [27]: 31.5%
viability, T/C [28]: 40.1%
viability, T/C [9]: 10.2%
viability, T/C [10]: 8.85%
viability, T/C [11]: 8.61%
viability, T/C [12]: 7.84%
viability, T/C [29]: 9.11%
viability, T/C [30]: 10.2%
viability, T/C [13]: 0.19%
viability, T/C [14]: 0.34%
viability, T/C [15]: 0.16%
viability, T/C [16]: 0.63%
viability, T/C [31]: 0.66%
viability, T/C [32]: 0.35%
viability, T/C [17]: 0.24%
viability, T/C [18]: 0.12%
viability, T/C [19]: 0.18%
viability, T/C [20]: 0.08%
viability, T/C [33]: 0.96%
viability, T/C [34]: 0.39%
viability, T/C [21]: 0.6%
viability, T/C [22]: 0.32%
viability, T/C [23]: 0.35%
viability, T/C [24]: 0.18%
viability, T/C [35]: 0.41%
viability, T/C [36]: 1.31%

COC1C=CCC(C)C(C)S(=O)(=O)NC(=O)c2ccc3c(c2)N(CC2CCC21)CC1(CCCc2cc(Cl)ccc21)CO3 (stereo unspecified) + CNC(=O)c1ccc(Nc2nc(OC3CCCC3)c3c(-c4ccc5nc(C)oc5c4)c[nH]c3n2)c(OC)c1
IC50 (second compound 0.0316 µM): 2270 nM
IC50 (second compound 0.1 µM): 2160 nM
IC50 (second compound 0.316 µM): 203 nM
IC50 (second compound 1 µM): < 31.6 nM
IC50 (second compound 3.16 µM): < 31.6 nM
IC50 (second compound 10 µM): < 31.6 nM
viability, T/C [1]: 105%
viability, T/C [2]: 118%
viability, T/C [3]: 101%
viability, T/C [4]: 87.6%
viability, T/C [25]: 34.6%
viability, T/C [26]: 13.6%
viability, T/C [5]: 102%
viability, T/C [6]: 106%
viability, T/C [7]: 101%
viability, T/C [8]: 78.5%
viability, T/C [27]: 35.9%
viability, T/C [28]: 18.9%
viability, T/C [9]: 75.9%
viability, T/C [10]: 74%
viability, T/C [11]: 35%
viability, T/C [12]: 29.7%
viability, T/C [29]: 30%
viability, T/C [30]: 11.9%
viability, T/C [13]: 33%
viability, T/C [14]: 22.6%
viability, T/C [15]: 15.8%
viability, T/C [16]: 13.6%
viability, T/C [31]: 14.9%
viability, T/C [32]: 9.33%
viability, T/C [17]: 20.9%
viability, T/C [18]: 15.9%
viability, T/C [19]: 16.9%
viability, T/C [20]: 11.5%
viability, T/C [33]: 15.3%
viability, T/C [34]: 7.77%
viability, T/C [21]: 18%
viability, T/C [22]: 15.3%
viability, T/C [23]: 16.7%
viability, T/C [24]: 10.5%
viability, T/C [35]: 11.3%
viability, T/C [36]: 11.4%
